Data as given in patent publication US11390661B2, “HCMV entry inhibitors” (priority 2016, dated 2022).
Ends that are not written are not given here.

How the values were obtained:
HCMV strain TB40/E [1] = assay type: cell-based, Human cytomegalovirus; settings: HFFs
Procedure: For screening the PDGFRα peptides for their neutralizing capacity a recently developed Gaussia-Luciferase-Assay was utilized (10). The Gaussia luciferase is secreted into the cell culture supernatants, therefore it is not necessary to fix the cells and instead a sample of the Gaussia containing supernatant is taken and mixed with the substrate coelenterazine (PjK) at a final concentration of 0.2 μg/ml. The resulting light emission was detected at 495 nm. For all obtained values background signals were subtracted and neutralization efficiency was determined relative to the control samples which contained only virus, no peptide.
Cell free preparations of strain TB40/E were pre-incubated with the individual peptides at concentrations reaching from 0.05-50 nmol/ml for 2 h and the mixtures were then incubated with HFF cultures in a 96-well format. The various peptides differed greatly regarding their inhibitory potential with a region between aa120 and aa280 being absolutely ineffective and the peptides surrounding this region having the highest anti-HCMV effect (FIG. 9).

HCMV strain TB40/E [2] = assay: Inhibition of infection of fibroblasts (HFFs), IE antigen immunofluorescence; assay type: cell-based, Human cytomegalovirus; settings: increasing concentrations, pre-incubated 2 h
Procedure: For testing the inhibitory effect of antivirals or fusion proteins on HCMV, the respective inhibitors were diluted in MEM and mixed with infectious supernatants, the mixtures were incubated for 2 h at 37° C. before addition to the cells. For fibroblast infection the virus-inhibitor mixture was incubated on the cells for about 24 h. If endothelial cells were included in the experiment, all cells were supplied with their respective maintenance media after 2 h, and further incubated for 22 h.
Infection efficiencies were determined by immunofluorescence staining for viral proteins. For fixation and permeabilization the cells were incubated with 80% acetone for 5 min. For HCMV infected cells the immediate early proteins pUL122/123 were detected with a mouse monoclonal (clone E13, Argene) and visualized using a Cy3 conjugated goat anti-mouse secondary antibody (Jackson Immuno Research). HSV infected cultures were stained 6 h post infection for ICP0 using a mouse monoclonal (clone 11060, Santa Cruz) and goat anti-mouse AF488 (life technologies). DAPI was used to locate nuclei. Infection rates were determined by counting the number of cell nuclei positive for the respective viral protein, as well as the total number of nuclei per image. For each condition three images were evaluated.
To test this, the inventors pre-incubated cell free preparations of HCMV strain TB40/E with variable concentrations of soluble PDGFR-alpha-Fc chimeras for 2 h before adding them to HFFs and HECs. After 2 h the virus was removed and replaced with the appropriate cell culture medium for an overnight incubation. Cultures were then fixed, and the fraction of infected cells was determined by indirect immunofluorescence staining of viral IE antigens.
Cell free preparations of TB40/E were pre-incubated with increasing concentrations of the various Fc chimeras for 2 h. HFFs were then incubated with the mixtures for 2 h followed by a medium exchange and an overnight incubation.

HCMV particles = assay: Binding of chimeric receptors (Fc-fusion proteins) to HCMV particles; design: species or system Human cytomegalovirus; settings: particles pre-incubated with Fc-fusion protein, attached to cells on ice
Procedure: To assess the binding of Fc-Proteins to virus particles, HFFs were seeded at a density of 40,000 cells per well on IBIDI plates 1 day prior to infection. Virus preparations were pre-incubated with Fc-fusion proteins at a final concentration of 500 ng/ml for 2 h at 37° C. The virus/Fc-protein mixtures were incubated with the cells for 1.5 h on ice. Before fixation with 80% acetone, the cells were washed once with MEM. For staining of viral particles mouse hybridoma recognizing the abundant viral protein pp150 (generously provided by W. Britt, Sanchez 2000) used.
The inventors tested this by staining of adsorbed virus particles with the Fc-fusion proteins. […] Virus particles were stained for the capsid protein pp150 and bound Fc-fusion proteins.
The inventors analyzed the mode of inhibition by PDGFR-alpha-Fc. For this, the binding of different concentrations of the fusion protein was quantified by assessing the particle intensities after staining with anti-human antibody (FIG. 5). […] (FIGS. 4 and 5).

| Molecule | inhibition at 10 nmol/ml (HCMV strain TB40/E [1]; 10 nmol/ml) | EC50 (HCMV strain TB40/E [1]; pre-incubated 2 h, read-out: EC50 of inhibition of HCMV infection by peptide) [nM] | inhibitory potential of Fc chimeras on HCMV infection of HFFs (HCMV strain TB40/E [2]) | binding of Fc-fusion protein to virus particles (anti-human antibody staining) (HCMV particles) |
| --- | --- | --- | --- | --- |
| GRHIYIYVPDPDVAFVPLGMTDYLVIVEDDDSAIIPCRTT [peptide between aa90 and aa130] | almost complete inhibition | 2000 | – | – |
| PDGFR-beta-Fc: recombinant Fc-fusion protein obtained from R&D (385-PR-100), comparison chimera (protein, left off: a dimerising Fc or GST, recombinant Fc-fusion protein obtained from R&D (385-PR-100), comparison chimera) LVVTPPGPELVLNVSSTFVLTCSGSAPVVWERMSQEPPQEMAKAQDGTFSSVLTLTNLTGLDTGEYFCTHNDSRGLETDERKRLYIFVPDPTVGFLPNDAEELFIFLTEITEITIPCRVTDPQLVVTLHEKKGDVALPVPYDHQRGFSGIFEDRSYICKTTIGDREVDSDAYYVYRLQVSSINVSVNAVQTVVRQGENITLMCIVIGNEVVNFEWTYPRKESGRLVEPVTDFLLDMPYHIRSILHIPSAELEDSGTYTCNVTESVNDHQDEKAINITVVESGYVRLLGEVGTLQFAELHRSRTLQVVFEAYPPPTVLWFKDNRTLGDSSAGEIALSTRNVSETRYVSELTLVRVKVAEAGHYTMRAFHEDAEVQLSFQLQINVPVRVLELSESHPDSGEQTVRCRGRGMPQPNIIWSACRDLKRCPRELPPTLLGNSSEEESQLETNVTYWEEEQEFEVVSTLRLQHVDRPLSVRCTLRNAVGQDTQEVIVVPHSLPF | – | – | neither PDGFR-beta-Fc nor EGFR-Fc had an effect | visualized only those particles that were pre-treated with PDGFR-alpha-Fc |
